# Reference: patent US11331290B2, “Niclosamide for the treatment of cancer metastasis” (Max-Delbrück-Centrum für Molekulare Medizin in der …, priority 2011, dated 2022)
# Tests used:
# Format in all cases: cell-based, human
# HCT116 cells = test: Anchorage-dependent cell proliferation (MTT), discontinued treatment
# Protocol: For cell proliferation determination of HCT116, SW620, LS174T, SW480 and DLD-1 cells 2×10^3 cells were seeded in 96-well-plates (for each day one plate) and were given 24 hours to attach to the bottom of the well. Cells were from then on treated daily with 1 μM niclosamide or the respective amount of DMSO. For determination of viable cells 3-(4,5-dimethyl-2-thiazol)-2,5-diphenyl-2H-tetrazolium bromide (MTT; Sigma) was added to a final concentration of 0.5 mg per mL and incubated for 3 hours at 37° C. and 5% CO2 in a humidified incubator. […] Crystallized MTT was resolved by 10% SDS in 10 mM HCl and the absorption was measured at 560 nm. […] The average MTT metabolisation was determined of two independent experiments each performed in triplicate.
# (A) S100A4 expression in vitro after discontinued niclosamide treatment. HCT116 cells were treated daily with 1 μM niclosamide for three consecutive days, medium was removed on day 4, and S100A4 expression was analyzed 24, 48, and 72 hours after niclosamide removal. S100A4 expression was analyzed by qRT-PCR and immunoblot. […] Cell migration rates of HCT116 cells treated as in (A) were determined by Boyden chamber assay. Differences in control vs. treated cells were analyzed by Student's t test. […] Cell proliferation was determined by MTT assay. […] (E) Luminescence signal from liver metastases and spleen tumors. […]
# HCT116-vector cells = test: Soft agar colony formation assay; settings: 1 μM, 7 days
# Protocol: (§1) Analysis of anchorage-independent cell proliferation was achieved by soft agar colony formation assay. A bottom layer containing 0.5% w/v agarose, RPMI-1640 medium, 10% FBS and 1 μM niclosamide or the respective amount of DMSO was added to a 6 cm Ø dish and incubated at room temperature under sterile conditions for 10 minutes. Onto the solidified bottom layer a top layer was added containing 8×10^3 cells, 0.33% w/v agarose, RPMI-1640 medium, 10% FBS and 1 μM niclosamide or the respective amount of DMSO. Cells were seeded as single cells into the soft agar and incubated in a humidified incubator at 37° C. and 5% CO2 for 7 days. Colony formation was visualized by 10× magnification for an overview and 40× magnification for single colonies in the Leica DM IL light microscope (Leica Microsystems). Colony quantification was achieved by counting cell colonies of more than 4 cells in 10 squares of […]. Colony formation experiments were repeated twice, each in triplicates.
# (§2) (A) Cell migration of HCT116-vector and HCT116-S100A4 cells exposed to niclosamide treatment. Cells were treated with 1 μM niclosamide for 24 hours and migration rates were measured with Boyden chamber assay. (B) Cell invasion of HCT116-vector and HCT116-S100A4 cells exposed to niclosamide treatment. Cells were treated with 1 μM niclosamide for 24 hours and cell invasion was determined by Boyden chamber assay. (C) Directed migration of HCT116-vector and HCT116-S100A4 cells exposed to niclosamide treatment analyzed by wound healing assay. Wounds of 300 μM width were set in a 60% confluent monolayer of HCT116-vector or HCT116-S100A4 cells on day 1. Cells were treated daily with 1 μM niclosamide for 4 days. Microphotographs of day 4 are presented here with black lines indicating margins of entered wound of day 1; scale bar represents 200 μM. Data represents three independent experiments. (D) Adhesive cell proliferation of HCT116-vector and HCT116-S100A4 cells exposed to niclosamide treatment. Cells were treated daily with 1 μM niclosamide and cell viability was determined with MTT assay. (E) Anchorage-independent cell growth of HCT116-vector and HCT116-S100A4 cells exposed to niclosamide treatment. Cells were plated as single cells into 0.33% (w/v) agarose and treatment (solvent or 1 μM niclosamide) containing medium. After 7 days colonies were visualized by light microscopy at 10× (overview) and 40× (single colony) magnification. (F) Quantification of colonies formed. Number of colonies (of more than 4 cells) was counted and normalized to solvent-treated HCT116-vector cells. Differences of niclosamide vs. solvent-treated cells were analyzed by Student's t test. Data represent mean±SE (n>2) of at least two independent experiments each performed in at least duplicate.
# HCT116-S100A4 cells = test: Soft agar colony formation assay; settings: 1 μM, 7 days
# Protocol: as §1, §2
smiles,measurement,setting,value
"O=C(Nc1ccc([N+](=O)[O-])cc1Cl)c1cc(Cl)ccc1O [niclosamide, 2′,5-dichloro-4′-nitrosalicylanilide]",anchorage-dependent proliferation,"HCT116 cells; 1 μM daily, vs solvent-treated control",inhibited
same,anchorage-dependent proliferation after removal of niclosamide,"HCT116 cells; niclosamide removed on day 5, following five days",did not reverse the inhibition of cell proliferation
same,colony size,HCT116-vector cells,clearly reduced
same,"number of colonies, mean % of solvent-treated HCT116-vector cells",HCT116-vector cells,6.8%
same,"number of colonies, mean difference control vs niclosamide",HCT116-vector cells,93.2%
same,colony size,HCT116-S100A4 cells,clearly reduced
same,"number of colonies, mean difference control vs niclosamide",HCT116-S100A4 cells,100.7%
same,"number of colonies, mean % of solvent-treated HCT116-vector cells",HCT116-S100A4 cells; solvent control 105.8%,5.0%
